We go through 6 compounds from patent US12139520B2 (priority 2020, dated 2024).

Data set [1] in a line: Physical stability of peptide analogues (Thioflavin T fibrillation). Format: physicochemical. The note with it: maximum ThT signal normalized between hAMY maximum and buffer background; 40° C., shaking, four days; pH 7 per table title. The essentials: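 1 h in 50 mM NaOAc pH 4 / 50 mM NaPi pH 7; + ThT 4 μM final; 40 °C, 700 rpm linear shake 5 min pre-read; ex 450, em 480 nm q10 min × 4 d; LOESS smoothing; max signal normalised to hAMY max vs buffer blank.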

The next data set concerns the target T1, hAMY3 receptor (Homo sapiens, UniProt O60896+P30988).
T1 sequence (P30988 25-474): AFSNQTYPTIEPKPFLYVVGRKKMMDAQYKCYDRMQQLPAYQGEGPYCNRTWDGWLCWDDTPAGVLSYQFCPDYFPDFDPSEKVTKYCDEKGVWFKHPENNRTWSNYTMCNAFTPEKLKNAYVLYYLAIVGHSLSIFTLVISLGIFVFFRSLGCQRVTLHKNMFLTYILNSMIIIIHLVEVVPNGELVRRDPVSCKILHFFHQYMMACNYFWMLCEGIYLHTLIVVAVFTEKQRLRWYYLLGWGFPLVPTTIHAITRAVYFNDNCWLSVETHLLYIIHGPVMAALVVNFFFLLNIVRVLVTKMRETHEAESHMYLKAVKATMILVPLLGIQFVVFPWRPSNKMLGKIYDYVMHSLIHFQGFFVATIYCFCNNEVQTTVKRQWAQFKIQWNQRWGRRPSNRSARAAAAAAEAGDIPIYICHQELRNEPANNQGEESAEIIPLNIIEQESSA
T1 sequence (O60896 24-148 partner): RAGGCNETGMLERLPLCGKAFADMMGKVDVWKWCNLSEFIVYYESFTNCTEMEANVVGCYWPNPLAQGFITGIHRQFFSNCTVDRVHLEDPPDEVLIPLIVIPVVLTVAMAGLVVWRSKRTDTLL
Nature of the data set: cAMP assay for in vitro receptor activation, hAMY3-R. In kind it is cell-based. As to conditions: cAMP assay, hAMY3 receptor; read-out: hAMY3R EC50. In a few lines:
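Monoclonal cell line stably overexpressing human AMY3 receptor, 2000 cells/well in DPBS with 0.05% casein and 0.5 mM IBMX. Stimulated 30 min at room temperature with graded compound doses, human amylin as positive control. cAMP accumulation read by TR-FRET after one hour.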
(In general: Changes in cAMP serve as a functional read-out for many G protein-coupled receptors.)

The target of the next data set is hAM1 receptor (Homo sapiens, UniProt O60895+Q16602). Nature of the data set: cAMP assay for in vitro receptor activation, hAM1-R. In kind it is cell-based. As to conditions: cAMP assay, hAM1 receptor; read-out: hAM1R EC50. In a few lines:
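Read-out is intracellular cAMP as a measure of receptor activation. Cells stably overexpressing hAM1 were subcloned to a monoclonal line, then thawed and seeded at 8000 cells/well in DPBS with 0.05% casein and the phosphodiesterase inhibitor IBMX at 0.5 mM.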

Each structure is given as a SMILES string. pEC50: −log10 of the molar value. Bridge positions count the residues as written; N and C are the ends. Square brackets hold non-standard residues; d marks the D form. Peptide text beside a SMILES is read from it. Hyp = O=C(O)[C@@H]1C[C@@H](O)CN1 Bounds are passed on as bounds.

hAM1 receptor, sequence (Q16602 23-461): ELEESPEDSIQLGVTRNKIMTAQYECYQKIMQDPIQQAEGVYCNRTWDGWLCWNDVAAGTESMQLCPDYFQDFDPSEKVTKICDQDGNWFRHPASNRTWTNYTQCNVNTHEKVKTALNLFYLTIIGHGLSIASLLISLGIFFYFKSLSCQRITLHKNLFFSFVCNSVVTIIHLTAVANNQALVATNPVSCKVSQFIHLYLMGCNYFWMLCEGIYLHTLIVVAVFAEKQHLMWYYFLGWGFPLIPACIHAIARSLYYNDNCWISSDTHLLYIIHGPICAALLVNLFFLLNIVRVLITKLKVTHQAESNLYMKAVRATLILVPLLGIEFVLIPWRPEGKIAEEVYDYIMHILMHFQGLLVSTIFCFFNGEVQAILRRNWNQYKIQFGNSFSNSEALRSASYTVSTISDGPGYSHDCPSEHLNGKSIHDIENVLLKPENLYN
hAM1 receptor, sequence (O60895 43-175 partner): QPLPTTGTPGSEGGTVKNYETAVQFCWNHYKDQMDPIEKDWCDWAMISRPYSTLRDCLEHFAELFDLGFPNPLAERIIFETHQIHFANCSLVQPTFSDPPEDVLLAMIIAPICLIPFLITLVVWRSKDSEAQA

`CC[C@H](C)[C@H](NC(=O)[C@H](CCC(N)=O)NC(=O)[C@H](C)NC(=O)[C@H](C)NC(=O)[C@H](CC(C)C)NC(=O)[C@H](CCCNC(=N)N)NC(=O)[C@H](CCC(N)=O)NC(=O)[C@@H](NC(=O)[C@@H](NC(=O)[C@@H]1CSSC[C@H](NC(=O)[C@@H](N)CCCCN)C(=O)N[C@@H](CC(N)=O)C(=O)N[C@@H]([C@@H](C)O)C(=O)N[C@@H](C)C(=O)N[C@@H]([C@@H](C)O)C(=O)N1)[C@@H](C)O)C(C)C)C(=O)N[C@@H](Cc1ccc(O)cc1)C(=O)N[C@@H](CCC(N)=O)C(=O)N[C@@H](Cc1ccccc1)C(=O)N[C@H](C(=O)N[C@@H](CC(=O)O)C(=O)N[C@@H](CCCCN)C(=O)N[C@@H](CC(=O)O)C(=O)N[C@@H](CCCCN)C(=O)N[C@@H](CC(=O)O)C(=O)N[C@@H](CC(N)=O)C(=O)N[C@H](C(=O)N[C@@H](C)C(=O)N1CCC[C@H]1C(=O)N1CCC[C@H]1C(=O)N[C@H](C(=O)N[C@@H](CC(N)=O)C(=O)N[C@H](C(=O)NCC(=O)N[C@@H](CO)C(=O)N[C@@H](CC(N)=O)C(=O)NCC(=O)N1C[C@H](O)C[C@H]1C(N)=O)C(C)C)[C@@H](C)O)C(C)C)[C@@H](C)O` [compound 7] (H-KCNTATCTVQRLAAQIYQFTDKDKDNVAPPTNVGSNG[Hyp]-NH2; disulfide 2-7; N-terminus assumed): in data set [1], the “Max ThT signal (%)” value turned out to be 2.800%. Moreover, the values for the negative-log EC50 (pEC50) on hAMY3 receptor and at hAM1 receptor were 11.22 and under 5.30, respectively.

In the case of `CC[C@H](C)[C@H](NC(=O)[C@H](C)NC(=O)[C@H](Cc1c[nH]cn1)NC(=O)[C@H](C)NC(=O)[C@H](CC(C)C)NC(=O)[C@H](CCCNC(=N)N)NC(=O)[C@H](CCC(N)=O)NC(=O)[C@@H](NC(=O)[C@@H](NC(=O)[C@@H]1CSSC[C@H](NC(=O)[C@@H](N)CCCCN)C(=O)N[C@@H](CC(N)=O)C(=O)N[C@@H]([C@@H](C)O)C(=O)N[C@@H](C)C(=O)N[C@@H]([C@@H](C)O)C(=O)N1)[C@@H](C)O)C(C)C)C(=O)N[C@@H](Cc1ccc(O)cc1)C(=O)N[C@@H](CCC(N)=O)C(=O)N[C@@H](Cc1ccccc1)C(=O)N[C@H](C(=O)N[C@@H](CC(=O)O)C(=O)N[C@@H](CCCCN)C(=O)N[C@@H](CC(=O)O)C(=O)N[C@@H](CCCCN)C(=O)N[C@@H](CC(=O)O)C(=O)N[C@@H](CC(N)=O)C(=O)N[C@H](C(=O)N[C@@H](C)C(=O)N1CCC[C@H]1C(=O)N1CCC[C@H]1C(=O)N[C@H](C(=O)N[C@@H](CC(N)=O)C(=O)N[C@H](C(=O)NCC(=O)N[C@@H](CO)C(=O)N[C@@H](CC(N)=O)C(=O)NCC(=O)N1C[C@H](O)C[C@H]1C(N)=O)C(C)C)[C@@H](C)O)C(C)C)[C@@H](C)O` [compound 13] (H-KCNTATCTVQRLAHAIYQFTDKDKDNVAPPTNVGSNG[Hyp]-NH2; disulfide 2-7; N-terminus assumed), the “Max ThT signal (%)” value in data set [1] amounted to 5.000%. Moreover, the pEC50 (as a rule, −log10 of the EC50, conventionally taken in molar units) at hAMY3 receptor is 11.15; at hAM1 receptor it was under 5.30.

For `CC[C@H](C)[C@H](NC(=O)[C@H](CCC(N)=O)NC(=O)[C@H](Cc1c[nH]cn1)NC(=O)[C@H](C)NC(=O)[C@H](CC(C)C)NC(=O)[C@H](CCCNC(=N)N)NC(=O)[C@H](CCC(N)=O)NC(=O)[C@@H](NC(=O)[C@@H](NC(=O)[C@@H]1CSSC[C@H](NC(=O)[C@@H](N)CCCCN)C(=O)N[C@@H](CC(N)=O)C(=O)N[C@@H]([C@@H](C)O)C(=O)N[C@@H](C)C(=O)N[C@@H]([C@@H](C)O)C(=O)N1)[C@@H](C)O)C(C)C)C(=O)N[C@@H](C)C(=O)N[C@@H](CCC(N)=O)C(=O)N[C@@H](Cc1ccccc1)C(=O)N[C@H](C(=O)N[C@@H](CC(=O)O)C(=O)N[C@@H](CCCCN)C(=O)N[C@@H](CC(=O)O)C(=O)N[C@@H](CCCCN)C(=O)N[C@@H](CC(=O)O)C(=O)N[C@@H](CC(N)=O)C(=O)N[C@H](C(=O)N[C@@H](C)C(=O)N1CCC[C@H]1C(=O)N1CCC[C@H]1C(=O)N[C@H](C(=O)N[C@@H](CC(N)=O)C(=O)N[C@H](C(=O)NCC(=O)N[C@@H](CO)C(=O)N[C@@H](CC(N)=O)C(=O)NCC(=O)N1C[C@H](O)C[C@H]1C(N)=O)C(C)C)[C@@H](C)O)C(C)C)[C@@H](C)O` [compound 14] (H-KCNTATCTVQRLAHQIAQFTDKDKDNVAPPTNVGSNG[Hyp]-NH2; disulfide 2-7; N-terminus assumed), the “Max ThT signal (%)” value in data set [1] was found to be 3.100%. Further, the pEC50 is 11.15 at hAMY3 receptor and under 5.30 at hAM1 receptor.

As for `CC[C@H](C)[C@H](NC(=O)[C@H](CCC(N)=O)NC(=O)[C@H](Cc1c[nH]cn1)NC(=O)[C@H](C)NC(=O)[C@H](CC(C)C)NC(=O)[C@H](CCCNC(=N)N)NC(=O)[C@H](CCC(N)=O)NC(=O)[C@@H](NC(=O)[C@@H](NC(=O)[C@@H]1CSSC[C@H](NC(=O)[C@@H](N)CCCCN)C(=O)N[C@@H](CC(N)=O)C(=O)N[C@@H]([C@@H](C)O)C(=O)N[C@@H](C)C(=O)N[C@@H]([C@@H](C)O)C(=O)N1)[C@@H](C)O)C(C)C)C(=O)N[C@@H](Cc1ccc(O)cc1)C(=O)N[C@@H](CCC(N)=O)C(=O)N[C@@H](Cc1ccccc1)C(=O)N[C@H](C(=O)N[C@@H](CC(=O)O)C(=O)N[C@@H](CCCCN)C(=O)N[C@@H](CC(=O)O)C(=O)N[C@@H](CCCCN)C(=O)N[C@@H](CC(=O)O)C(=O)N[C@@H](CC(N)=O)C(=O)N[C@H](C(=O)N[C@@H](C)C(=O)N1CCC[C@H]1C(=O)N[C@@H](CCCNC(=N)N)C(=O)N[C@H](C(=O)N[C@@H](CCCCN)C(=O)N[C@H](C(=O)NCC(=O)N[C@@H](CO)C(=O)N[C@@H](CC(N)=O)C(=O)NCC(=O)N1C[C@H](O)C[C@H]1C(N)=O)C(C)C)[C@@H](C)O)C(C)C)[C@@H](C)O` [compound 20] (H-KCNTATCTVQRLAHQIYQFTDKDKDNVAPRTKVGSNG[Hyp]-NH2; disulfide 2-7; N-terminus assumed), in data set [1], the “Max ThT signal (%)” value is recorded as 9.100%. Besides, the values for the pEC50 at hAMY3 receptor and on hAM1 receptor were 11.10 and under 5.30, respectively.

For `CC[C@H](C)[C@H](NC(=O)[C@H](CCC(N)=O)NC(=O)[C@H](Cc1c[nH]cn1)NC(=O)[C@H](C)NC(=O)[C@H](CC(C)C)NC(=O)[C@H](CCCNC(=N)N)NC(=O)[C@H](CCC(N)=O)NC(=O)[C@@H](NC(=O)[C@@H](NC(=O)[C@@H]1CSSC[C@H](NC(=O)[C@@H](N)CCCCN)C(=O)N[C@@H](CC(N)=O)C(=O)N[C@@H]([C@@H](C)O)C(=O)N[C@@H](C)C(=O)N[C@@H]([C@@H](C)O)C(=O)N1)[C@@H](C)O)C(C)C)C(=O)N[C@@H](Cc1ccc(O)cc1)C(=O)N[C@@H](CCC(N)=O)C(=O)N[C@@H](Cc1ccccc1)C(=O)N[C@@H](C)C(=O)N[C@@H](CC(=O)O)C(=O)N[C@@H](CCCCN)C(=O)N[C@@H](CC(=O)O)C(=O)N[C@@H](CCCCN)C(=O)N[C@@H](CC(=O)O)C(=O)N[C@@H](CC(N)=O)C(=O)N[C@H](C(=O)N[C@@H](C)C(=O)N1CCC[C@H]1C(=O)N1CCC[C@H]1C(=O)N[C@H](C(=O)N[C@@H](CC(N)=O)C(=O)N[C@H](C(=O)NCC(=O)N[C@@H](CO)C(=O)N[C@@H](CC(N)=O)C(=O)NCC(=O)N1C[C@H](O)C[C@H]1C(N)=O)C(C)C)[C@@H](C)O)C(C)C` [compound 23] (H-KCNTATCTVQRLAHQIYQFADKDKDNVAPPTNVGSNG[Hyp]-NH2; disulfide 2-7), in data set [1], the “Max ThT signal (%)” value came out at 4.200%. Further, the pEC50 at hAMY3 receptor is 11.10; at hAM1 receptor, under 5.30.

As to `CC[C@H](C)[C@H](NC(=O)[C@H](CCC(N)=O)NC(=O)[C@H](Cc1c[nH]cn1)NC(=O)[C@H](C)NC(=O)[C@H](CC(C)C)NC(=O)[C@H](CCCNC(=N)N)NC(=O)[C@H](CCC(N)=O)NC(=O)[C@@H](NC(=O)[C@@H](NC(=O)[C@@H]1CSSC[C@H](NC(=O)[C@@H](N)CCCCN)C(=O)N[C@@H](CC(N)=O)C(=O)N[C@@H]([C@@H](C)O)C(=O)N[C@@H](C)C(=O)N[C@@H]([C@@H](C)O)C(=O)N1)[C@@H](C)O)C(C)C)C(=O)N[C@@H](Cc1ccc(O)cc1)C(=O)N[C@@H](CCC(N)=O)C(=O)N[C@@H](Cc1ccccc1)C(=O)N[C@H](C(=O)N[C@@H](C)C(=O)N[C@@H](CCCCN)C(=O)N[C@@H](CC(=O)O)C(=O)N[C@@H](CCCCN)C(=O)N[C@@H](CC(=O)O)C(=O)N[C@@H](CC(N)=O)C(=O)N[C@H](C(=O)N[C@@H](C)C(=O)N1CCC[C@H]1C(=O)N1CCC[C@H]1C(=O)N[C@H](C(=O)N[C@@H](CC(N)=O)C(=O)N[C@H](C(=O)NCC(=O)N[C@@H](CO)C(=O)N[C@@H](CC(N)=O)C(=O)NCC(=O)N1C[C@H](O)C[C@H]1C(N)=O)C(C)C)[C@@H](C)O)C(C)C)[C@@H](C)O` [compound 24] (H-KCNTATCTVQRLAHQIYQFTAKDKDNVAPPTNVGSNG[Hyp]-NH2; disulfide 2-7; N-terminus assumed), the “Max ThT signal (%)” value in data set [1] is given as 6.800%. Besides, the results for the negative-log EC50 (pEC50) on hAMY3 receptor and at hAM1 receptor were 11.10 and under 5.30, respectively.
